# Laboratory results from PMC3056882 (Steroids, 2011).
# Like-named read-outs stand apart in the source and are kept apart here.
# T1: AKR1D1 (Homo sapiens, UniProt P51857)
# T1 sequence (P51857 1-326): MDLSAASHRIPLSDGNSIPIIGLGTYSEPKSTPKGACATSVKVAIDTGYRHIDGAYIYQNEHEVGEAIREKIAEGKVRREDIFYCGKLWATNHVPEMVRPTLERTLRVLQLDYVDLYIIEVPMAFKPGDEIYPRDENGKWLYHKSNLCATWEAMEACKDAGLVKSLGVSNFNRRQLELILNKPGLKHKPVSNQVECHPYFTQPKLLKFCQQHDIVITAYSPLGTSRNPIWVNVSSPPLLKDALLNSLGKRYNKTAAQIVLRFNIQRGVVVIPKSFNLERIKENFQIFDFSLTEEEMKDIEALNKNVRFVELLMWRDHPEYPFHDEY
# B1: AKR1D1 (Homo sapiens) (protein)
# chain: T1 sequence (P51857 1-326)
# How the values were obtained:
# [1] = molecular target: T1, AKR1D1; conditions: cited from earlier work
# [2] = molecular target: AKR1C1; conditions: read-out: Ki AKR1C1; competitive (C); ref Bauman et al., 2005 [28]; cited from earlier work
# [3] = molecular target: AKR1C3; conditions: read-out: Ki AKR1C3; competitive (C); ref Bauman et al., 2005 [28]; cited from earlier work
# [4] = molecular target: AKR1C2; conditions: read-out: Ki AKR1C2; competitive (C); ref Bauman et al., 2005 [28]; cited from earlier work
# [5] = molecular target: T1, AKR1D1; assay: Inhibition of [4-14C]-testosterone reduction, radiometric assay; format: biochemical; conditions: for ability to inhibit the AKR1D1 dependent reduction of testosterone: result in words; for mode of inhibition of AKR1D1: C, competitive inhibition, NC, non-competitive inhibition
# [6] = molecular target: T1, AKR1D1; format: biochemical; conditions: for Km / kcat: fluorimetric, pH 6.0, 15 μM NADPH, 37 °C
# [7] = molecular target: T1, AKR1D1; assay: Dissociation constant of AKR1D1-NADPH binary complex by fluorescence titration; format: binding
# [8] = molecular target: aldose reductase AKR1B1; conditions: read-out: Kd of NADPH for aldose reductase AKR1B1; cited from earlier work
# [9] = substrate: C[C@]12CCC(=O)C=C1CC[C@@H]1[C@@H]2[C@@H](O)C[C@]2(C=O)[C@@H](C(=O)CO)CC[C@@H]12; format: biochemical, human; conditions: other: fluorimetric, pH 6.0, 15 μM NADPH, 37 °C
# [10] = substrate: C[C@]12CC[C@H]3[C@@H](CCC4=CC(=O)CC[C@@]43C)[C@@H]1CC[C@H]2O; format: biochemical, human; conditions: other: fluorimetric, pH 6.0, 15 μM NADPH, 37 °C
# [11] = substrate: C[C@]12CCC(=O)C=C1CC[C@@H]1[C@@H]2[C@@H](O)C[C@@]2(C)[C@H]1CC[C@]2(O)C(=O)CO; format: biochemical, human; conditions: other: fluorimetric, pH 6.0, 15 μM NADPH, 37 °C
# [12] = read-out: Ki (substrate inhibition), dissociation constant for substrate from the E-NADP(H) complex, N.D. = not detected
# [13] = dissociation constant for substrate from the E-NADP(H) complex, N.D. = not detected
# [14] = ref Di Costanzo et al., 2008 [13]
molecule,measurement,setting,value
"C[C@]12CC[C@H]3[C@@H](CCC4=CC(=O)C=C[C@@]43C)[C@@H]1CC[C@@H]2O [1,4-Androstadien-17β-ol-3-one]",Km,"[1]; ref Drury et al., 2009 [14]",3.2 ± 0.2 µM
same,kcat,"[1]; ref Drury et al., 2009 [14]",0.035 ± 0.0017 s⁻¹
O=C(O)c1ccc(C(=O)c2ccccc2)cc1 [4-Benzoylbenzoic acid],Ki,[2],12.5 µM
same,Ki,[3],1.9 µM
same,Ki,[4],13.3 µM
same,Ki,[5],> 100 µM
same,ability to inhibit the AKR1D1 dependent reduction of testosterone,[5],ineffective
CC(C)CCC[C@@H](C)[C@H]1CC[C@H]2[C@@H]3[C@H](O)CC4=CC(=O)CC[C@]4(C)[C@H]3CC[C@]12C [4-Cholesten-7α-ol-3-one],Km,[6],0.8 ± 0.2 µM
same,kcat,[6],0.0333 ± 0.0017 s⁻¹
C[C@]12CC[C@H]3[C@@H](CCC4=CC(=O)CC[C@@H]43)[C@@H]1CC[C@@H]2O [4-Estren-17β-ol-3-one],Km,[6],3 ± 0.5 µM
same,kcat,[6],0.045 ± 0.0033 s⁻¹
same,Ki,[6]; [12],18.6 ± 3.4 µM
C[C@]12CC[C@H]3[C@@H](CCC4=CC(=O)CC[C@@]43C)[C@@H]1CC[C@@H]2C(=O)CO [11-deoxycorticosterone],Ki,[6],< 2 µM
same,Km,[6],< 0.2 µM
same,kcat,[6],> 0.067 s⁻¹
C[C@]12CCC(=O)C=C1CC[C@@H]1[C@@H]2[C@@H](O)C[C@]2(C=O)[C@@H](C(=O)CO)CC[C@@H]12 [Aldosterone],Ki,[6],66.5 ± 15.7 µM
C[C@H](CCC(=O)O)[C@H]1CC[C@H]2[C@@H]3[C@H](O)C[C@@H]4C[C@H](O)CC[C@]4(C)[C@H]3CC[C@]12C [Chenodeoxycholic acid],Ki,[2],8.3 µM
same,Ki,[3],10 µM
same,Ki,[4],0.017 µM
same,Ki,[5],3.2 µM
same,mode of inhibition of AKR1D1,[5],non-competitive
CC(C)CCC[C@@H](C)[C@H]1CC[C@H]2[C@@H]3CCC4=CC(=O)CC[C@]4(C)[C@H]3CC[C@]12C [Cholestenone],Km,[6],0.3 ± 0.1 µM
same,kcat,[6],0.01 ± 0.00067 s⁻¹
C[C@]12C[C@H](O)[C@H]3[C@@H](CCC4=CC(=O)CC[C@@]43C)[C@@H]1CC[C@@H]2C(=O)CO [Corticosterone],Ki (substrate inhibition),[6]; [13],do not exhibit substrate inhibition
same,Km,[6],2.2 ± 0.5 µM
same,kcat,[6],0.0317 ± 0.0017 s⁻¹
C[C@]12CCC(=O)C=C1CC[C@@H]1[C@@H]2[C@@H](O)C[C@@]2(C)[C@H]1CC[C@]2(O)C(=O)CO [Cortisol],Ki (substrate inhibition),[6]; [13],do not exhibit substrate inhibition
C[C@]12CCC(=O)C=C1CC[C@@H]1[C@@H]2C(=O)C[C@@]2(C)[C@H]1CC[C@]2(O)C(=O)CO [Cortisone],Km,[6],15.1 ± 0.3 µM
same,kcat,[6],0.195 ± 0.0017 s⁻¹
C[C@]12CC[C@H]3[C@@H](CCC4=CC(=O)CC[C@@]43C)[C@@H]1CC[C@H]2O [Epitestosterone],Ki,[6],10 ± 2.2 µM
COc1ccc2c(c1)c(CC(=O)O)c(C)n2C(=O)c1ccc(Cl)cc1 [Indomethacin],Ki,[5],> 100 µM
same,ability to inhibit the AKR1D1 dependent reduction of testosterone,[5],ineffective
Cc1cccc(Nc2ccccc2C(=O)O)c1C [Mefenamic acid],Ki,[2],0.8 µM
same,Ki,[5],> 100 µM
same,ability to inhibit the AKR1D1 dependent reduction of testosterone,[5],ineffective
C[C@]12CC[C@H]3[C@@H](CCC4=CC(=O)CC[C@@]43C)[C@@H]1CC[C@@H]2O [Testosterone],Ki,"[1]; read-out: Ki (substrate inhibition), ref Di Costanzo et al., 2008 [13]",14.5 ± 5.8 µM
same,Km,[1]; [14],2.7 ± 1.2 µM
same,kcat,[1]; [14],0.14 ± 0.0333 s⁻¹
C[C@H](CCC(=O)O)[C@H]1CC[C@H]2[C@@H]3[C@@H](O)C[C@@H]4C[C@H](O)CC[C@]4(C)[C@H]3CC[C@]12C [Ursodeoxycholic acid],Ki,[2],4.9 µM
same,Ki,[3],1.3 µM
same,Ki,[4],0.011 µM
same,Ki,[5],9.8 µM
same,mode of inhibition of AKR1D1,[5],non-competitive
CC(=O)[C@H]1CC[C@H]2[C@@H]3CCC4=CC(=O)CC[C@]4(C)[C@H]3CC[C@]12C [progesterone],Ki,[6],< 2 µM
same,Km,[6],< 0.2 µM
same,kcat,[6],> 0.067 s⁻¹
"C[C@]12CCC(=O)C=C1CC[C@@H]1[C@@H]2CC[C@]2(C)C(=O)CC[C@@H]12 [Δ^4-Androstene-3,17-dione]",Km,[6],0.9 ± 0.2 µM
same,kcat,[6],0.1 ± 0.013 s⁻¹
same,Ki,[6]; [12],4.3 ± 1.3 µM
NADPH,Kd fold higher than AKR1B1,[7]; AKR1D1 vs AKR1B1 (human aldose reductase),5 fold
same,Kd,"[7]; read-out: dissociation constant (Kd) of NADPH for wild-type AKR1D1, fluorescence titration, 10 mM potassium phosphate pH 6.0, 37 °C",0.043 ± 0.016 µM
same,Kd,[8],0.009 µM
B1,Km,[9],2.5 ± 0.4 µM
same,kcat,[9],0.15 ± 0.01 s⁻¹
same,kcat/Km,[9],61300 M⁻¹ s⁻¹
same,Km,[10],2.9 ± 0.6 µM
same,kcat,[10],0.1 ± 0.0117 s⁻¹
same,kcat/Km,[10],34800 M⁻¹ s⁻¹
same,Km,[11],13.1 ± 1.8 µM
same,kcat,[11],0.045 ± 0.00167 s⁻¹
same,kcat/Km,[11],3500 M⁻¹ s⁻¹
